Reference: ChEMBL document CHEMBL3507680, “University of Dundee, Gates Library screen for HepG2 cell viability”

Test: Human HepG2 cell viability assay in 384 well format
Assay type: toxicity, cell-based
Parameters: dose 125 nL, time 70.5 hour; concentration not given beside the values
Conditions: HepG2 cells, read-out: Inhibition

SMILES	cytotoxicity at 70.5 h
Cc1nc(C)c(CN2CCOC(CN(C)c3cccnn3)C2)s1 (centres undefined)	-8.03%
CN(Cc1nnc(-c2ccco2)o1)C1CCCN(c2cccnn2)C1 (centres undefined)	36.8%
COC(=O)C(C)CN(Cc1ccccc1)C(=O)CN1CCCNC1=O (centres undefined)	-0.248%
COCC(=O)N1CC[C@@H]2CN(Cc3cccc(Cl)c3)S(=O)(=O)[C@@H]2CC1	24.3%
CC(C)c1nccn1-c1cccc(C2CCCN(C3CCCC3)C2)n1 (centres undefined)	-12.4%
CC(C)NC(=O)CN(C)CC(=O)/N=c1/cc[nH]n1C(C)C1CC1 (centres undefined)	34.2%
CC(C)c1cc(NCC2(N3CCOCC3)CCCCC2)ncn1	45.2%
O=C(NC1(C(=O)NC2CCCC2)CCCC1)c1ccc2[nH]ncc2c1	-8.68%
Cc1nn(C)c(Cl)c1C1CCCN1CC(=O)Nc1cccnc1 (centres undefined)	-6.29%
c1nnc(Nc2cncc(C3CCCN3)n2)s1 (centres undefined)	-7.63%
Cc1cccc2nc(CNC(=O)N3CCC(N4CC=CC4)C3)cn12 (centres undefined)	-14.4%
Cc1cnc(N2CCCC(c3ccccc3)C2)nc1-c1ccnn1C (centres undefined)	-8.04%
c1cncc(CN2CCc3ncnc(C4CC4)c3CC2)c1	2.26%
Cc1nn(C)c(C)c1-c1cc(-c2cc(CC(=O)O)cs2)nc(N)c1C#N	-7.79%
Cc1nnc(NC(=O)NCc2ccc(N3CCN(C)CC3)nc2)s1	-24.8%
COCc1ncn2c1CN(S(=O)(=O)c1cccc(F)c1)CC2	-8.14%
CS(=O)(=O)N1CCC2(CC1)COC(COc1ccccn1)C2 (centres undefined)	-12.3%
CC(C)C1CN(C(=O)c2cc(C3CC3)n[nH]2)CCC(=O)N1CC1CC1 (centres undefined)	-3.1%
CCCc1nnsc1C(=O)NCC1CCN(c2ccccn2)CC1	-6.19%
N#Cc1ccc(N2CC3(CCN(c4nccs4)C3)C2)nc1	5.37%
CNC(=O)Cn1nc(C(C)C)c2cnn(C(C)(C)C)c2c1=O	25.5%
Cc1ccc(CN(C(=O)NCC2CCCO2)C2CC2)o1 (centres undefined)	-9.69%
CCN1CCN(S(=O)(=O)c2cnc(NC(C)=O)s2)CC1	17.3%

SMILES	cytotoxicity at 70.5 h
CCc1nnsc1C(=O)N1CCCN(Cc2ccc(C)cc2)CC1	-8.18%
CNC1CCN(C2CCN(c3ccc(-c4ccco4)cc3)CC2)CC1	8.23%
CN1CCOC(CNCc2ccccc2OCc2ccccn2)C1 (centres undefined)	-9.16%
CC(C)OCc1cccc(NC(=O)N2CCCC(CCC(N)=O)C2)c1 (centres undefined)	6.13%
N#CC1(C(=O)N2CCN(Cc3ccon3)CC2)CCC1	-20%
COc1ccc(NC(=O)C2OC(c3cccs3)=NN2C(C)=O)cc1OC (centres undefined)	2.61%
COCCC(=O)N1Cc2[nH]nc(COc3cccnc3)c2C1	-13.5%
Cc1cc(Cl)ccc1C(=O)C1CCCN(Cc2cnc(N(C)C)s2)C1 (centres undefined)	-5.77%
c1cnc2c(C3CCN(Cc4ccsc4)CC3)n[nH]c2n1	42.8%
Cc1cc(C)n(CC2CN(Cc3noc(C)n3)CCO2)n1 (centres undefined)	10.1%
CCCOC(=O)N1CCCn2nc(C(=O)Nc3ccccc3)cc2C1	-9.85%
COc1cc(C(=O)NS(=O)(=O)c2cccc(C#N)c2)ccc1C	-7.93%
Cn1c(C(F)(F)F)nn(CCNC(=O)Nc2ccccc2Cl)c1=O	25.1%
O=C(c1cc(-c2ccco2)nc2c(Cl)cccc12)N1C[C@H]2CNC[C@H]2C1	-6.09%
COCCn1cc2c(n1)C(CNC(=O)c1cc(C)[nH]c1C)OCC2 (centres undefined)	-2.66%
CSCC(=O)Nc1cccc(Oc2ccccn2)c1	9.83%
CC(C)=CCN1CCc2onc(-c3ccc(F)c(F)c3)c2C1	-11.7%
Cc1cnc(C)c(N2CCN(Cc3ccc(C)c(C)c3)CC2)n1	3.81%
Cc1n[nH]c(C2CN(Cc3csc(C4CC4)n3)CCO2)n1 (centres undefined)	-7.97%
O=S(=O)(CC1CCCN1S(=O)(=O)C1CC1)c1ccccc1 (centres undefined)	-6.46%
Cc1ccc(CCNC(=O)CC2COCCN2S(=O)(=O)N(C)C)o1 (centres undefined)	13.5%
Cn1cc(CNCCc2cccnc2)c(-c2cccnc2)n1	22.8%
CCCn1nnc(NCc2ccccc2OCc2ccc(Cl)cc2)n1	-7.74%

SMILES	cytotoxicity at 70.5 h
Cn1ccnc1C(=O)N1CCOC(Cc2ccccc2Cl)C1 (centres undefined)	11.6%
O=S(=O)(C1CC1)N1CCn2c(Cn3cncn3)cnc2C1	0.357%
COCCCN(Cc1ccccn1)S(=O)(=O)c1ccc(OC)cc1	-14.1%
CCS(=O)(=O)Nc1ccn(Cc2c(F)cccc2Cl)n1	-9.46%
CCOc1ccccc1C(=O)N1CCCC1c1ncc2c(n1)CCNC2 (centres undefined)	22.9%
CSCC(=O)N1CCCN(c2ccncc2C)CC1	-8.19%
CCN(CC(=O)NC(C)(C)C)Cc1cccc2c1OCCO2	-11.6%
O=c1oc(-c2ccc(F)cc2)nn1CN1CCCCC1	-18.4%
Cn1nc2c(cc1=O)CN(Cc1coc(-c3cccc(F)c3)n1)CC2	-2.83%
Cc1cc(CNC(=O)c2cn(CCC3CCCCN3)nn2)on1 (centres undefined)	-5.72%
COc1ccc(C)cc1CSCCn1nc2ccccn2c1=O	-11.5%
O=C(CCN1C(=O)CCC1=O)Nc1ccc(OCC(F)(F)F)nc1	-0.0202%
CC(C)CCOc1ccc(C(C)NC(=O)Cn2cccnc2=O)cc1 (centres undefined)	-5.94%
Cc1nc(C2CCCN2Cc2nnc(Cc3ccccc3)o2)no1 (centres undefined)	2.42%
Cc1noc(C(C)C)c1C(=O)N1CCOCC1CC(=O)c1ccco1 (centres undefined)	-5.66%
COc1ccc(CCC(=O)Nc2cccnc2N2CCCC2)cc1Br	-5.48%
O=C(c1cnc(-c2ccccc2)nc1)N1CCOC2(CCCC2)C1	-8.9%
CCc1ccc(C2NCCc3cc4c(cc32)OCCO4)cc1 (centres undefined)	8.93%
COc1ccc(COCC(O)CNC(=O)c2ccc(C#N)cc2)cc1 (centres undefined)	-5.39%
CC(C)c1cc(C2CCCN2C(=O)CN2C(=O)OC(C)(C)C2=O)no1 (centres undefined)	-9.43%
Cc1ccccc1C1(C(=O)NCCN2CCC(C)CC2)CCOCC1	17.6%
CCN1CCC(NC(=O)CN2CCCC2Cn2cc(C)cn2)CC1 (centres undefined)	0.649%
CN(C)c1ccc(C(=O)N2CCCN(Cc3cnn(C)c3)CC2)nn1	-8.42%

SMILES	cytotoxicity at 70.5 h
CC(C)n1c2ccccc2c2c1cc(C(=O)O)n2C(=O)N(C)C	-2.89%
CC1=N[C@@]2(CC[C@@H]3CN(Cc4cccc(Cl)c4)C[C@@H]32)C(=O)N1CC1CC1	-14.9%
Cc1nsc(C(=O)NCCCc2ccccc2)n1	-5.43%
CNc1ncccc1CN1CCN(c2cc(NC3CC3)nc(N)n2)CC1	0.197%
NC(=O)C1CCN(C(=O)NCc2ccccc2Cn2ccnc2)CC1	-6.43%
Cc1ccc(-c2nc(CNCCn3cccn3)cs2)o1	-7.84%
Cc1cc(-c2cnc(N3CCN(C)CC3)nc2C(C)C)on1	-3.07%
Cc1cnn(CC2CN(Cc3nnc(C4CC4)n3C)CCO2)c1 (centres undefined)	-4.23%
Cc1ccc(C)c(S(=O)(=O)NC(=O)COc2cccc(C#N)c2)c1	-2.88%
CN1CC(c2ccccc2)C2(CCN(C(=O)c3ccc[nH]3)CC2)C1=O (centres undefined)	2.63%
CC(C)c1ccc(CN2CCCC3(CC2)CN(C)C(=O)O3)cc1 (centres undefined)	-1.93%
CC1c2ncc(Cn3cccn3)n2CCN1S(C)(=O)=O (centres undefined)	19.8%
COc1c(F)cc(NC(=O)N2CCC(CSC)C2)cc1F (centres undefined)	16.5%
CC1COCCN1Cc1nc(-c2ccsc2)no1 (centres undefined)	-3.54%
Cc1ccc(-c2c(C(=O)NC3CCN(C)CC3)csc2C)cc1	-9.95%
CC(=O)NCC(=O)Nc1cc(C)n(-c2ccc(Cl)cc2Cl)n1	-0.82%
CCN(Cc1nccn1C)C(=O)c1ccc(NCc2ccccc2)nc1	-2.21%
O=C(c1ccco1)N1CCc2onc(Cn3cccn3)c2C1	-7.44%
Cc1ccccc1S(=O)(=O)Cc1nsc(N(C)C)n1	0.131%
O=C(NC[C@]12COC[C@H]1CN(Cc1ccncc1)C2)c1ccno1	-7.21%
COc1cc(C(=O)Nc2nc(C)no2)ccc1OC(F)F	2.82%
COc1cccc(COCC(=O)NC2CCN(CC(N)=O)CC2)c1	-5.13%
CCN1CCCC1CNCc1cc2cc3c(cc2[nH]c1=O)OCCO3 (centres undefined)	-1.38%

SMILES	cytotoxicity at 70.5 h
O=C(c1ccc2cc[nH]c2c1)N1CCC(Nc2cccnn2)CC1	-4.46%
CCCN1CCC(NN2CCN(C)CC2)CC1	-6.76%
Cc1cc(=O)n(C)cc1NC(=O)Cc1ccc(C(F)(F)F)cc1	0.135%
O=C(CSCC1CC1)N1CCc2[nH]nc(COc3ccccc3)c2C1	-6.96%
COCCN1CC[C@@H]2CN(Cc3cccnc3OC)C[C@@H]2C1	13.9%
O=C(Cn1nc(C(F)(F)F)c(Cl)c1C1CC1)NN1CCOCC1	12.9%
CC1CCN(c2ncc3c(n2)CN(c2ccc4c(c2)OCO4)C3=O)CC1	-6.45%
c1ccc(COc2ccccc2CNC2CCc3ncnn3C2)cc1 (centres undefined)	-6.49%
O=C(NCC1CCCO1)c1cc(-c2cccnc2)c2cnccc2n1 (centres undefined)	-3.09%
CN1CCC(C)(CNC(=O)c2ccc(SCc3cccnc3)cc2)CC1	-9.14%
COc1ccc(CNC(=O)N2CCN(C)[C@@H]3CS(=O)(=O)C[C@@H]32)cc1	-1.34%
COCCCC(=O)NC1(c2cccc(Br)c2)CC1	8.13%
Cn1cc(CN2CCn3cc(CNC(=O)c4cccn4C)nc3C2)cn1	-2.17%
Cc1nc(COC(=O)c2cccc3c2OCCO3)no1	23.5%
Cc1nnc(CN(C)Cc2ccc(C(=O)Nc3sccc3C#N)cc2)o1	0.967%
COCCn1c(CN2CCCO2)cnc1S(=O)(=O)CC1CCCCC1	-2.9%
CC(C)n1cc(S(=O)(=O)NCCc2nnc3ccccn23)cn1	5.41%
CCN(C)S(=O)(=O)N1CCC(C(O)c2ccc(F)cc2)CC1 (centres undefined)	-2.3%
Cc1nn(C)c(C)c1CCC(=O)Nc1nnc(C2CC2)s1	22.3%
Cc1cnn(CC2CCCN2C(=O)c2cccc(CC#N)c2)c1 (centres undefined)	-22%
CCCn1nc2c(cc1=O)CN(C(C)C(=O)Nc1nccs1)CC2 (centres undefined)	4.51%
CCNc1ccnc(NC2CCN(C(=O)c3ccc(C)cc3)CC2)n1	-13.3%
